Results as given in US9273290B2, “Method for producing phosphite dehydrogenase protein and use thereof” (HIROSHIMA UNIVERSITY, priority 2011, dated 2016).
Where “and” joins values, the source holds several entries; their conditions need not be identical. Equal values may be shown once.

Tests used:
[1] = target: T1, Pseudomonas stutzeri WM88 phosphite dehydrogenase, wild type, SEQ ID NO: 3, C-terminal His tag fusion (PtxDPst) (Stutzerimonas stutzeri, UniProt O69054); assay: Activity of phosphite dehydrogenase protein in the presence of inhibitor; format: biochemical; design: key to relative value of OD340 (activity in the presence of inhibitor, control = 100): OD340 relative to no-protein negative control = 100; conditions: 30° C., 60 minutes; for relative value of OD340 (activity in the presence of inhibitor, control = 100): 50 μL of 40 mM inhibitor in the reaction solution (500 μL in total); for activity in the presence of inhibitor (in words): 50 μL of 40 mM inhibitor in the reaction solution
T1 construct: His tag (C); made in house; host or cells: E. coli Rosetta2 (DE3), plasmid pET21b
T1 sequence (O69054 1-336): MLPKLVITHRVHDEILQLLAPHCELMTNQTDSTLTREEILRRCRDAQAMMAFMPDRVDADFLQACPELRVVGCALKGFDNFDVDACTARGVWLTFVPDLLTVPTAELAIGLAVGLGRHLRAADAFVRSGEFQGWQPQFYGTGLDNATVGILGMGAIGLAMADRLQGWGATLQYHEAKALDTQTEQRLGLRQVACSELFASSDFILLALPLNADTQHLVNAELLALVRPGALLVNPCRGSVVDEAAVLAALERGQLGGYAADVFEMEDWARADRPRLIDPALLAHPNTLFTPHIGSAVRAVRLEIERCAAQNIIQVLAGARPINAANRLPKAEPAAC
Source text: (§1) By a well-known method, the base sequence of SEQ ID NO: 2 or a phosphite dehydrogenase gene (SEQ ID NO: 4) of P stutzeri WM88 was inserted into a plasmid pET21b (produced by Novagen) (an amino acid sequence of the protein encoded by the base sequence of SEQ ID NO: 4 is shown in SEQ ID NO: 3) to prepare (i) an expression vector of a fusion protein (see “PtxD4506” in FIG. 2) in which the C-terminal of the phosphite dehydrogenase protein of SEQ ID NO: 1 is labeled with a His tag or (ii) an expression vector of a fusion protein (see “PtxDPst” in FIG. 2) in which the C-terminal of the phosphite dehydrogenase protein of P stutzeri WM88 is labeled with a His tag.
(§2) The supernatant was supplied to a HisTrap column (produced by GE Healthcare) and, in accordance with protocols attached to the HisTrap column, a fusion protein in which a His tag was connected to the C-terminal of the phosphite dehydrogenase protein of SEQ ID NO: 1 was purified.
(§3) PtxD4506 and PtxDPst, which were purified with use of the HisTrap column in [3. […] An experimental method was based on a method described in the literature “Costas et al., Journal of Biological Chemistry, 2001, 276, 17429-17436.” The experimental method is briefly described below.
(§4) A reaction solution was prepared by mixing 100 μL of 100 mM MOPS-KOH (pH 7.25), 50 μL of 10 mM NAD, 5 μL of 5 mM phosphite, 50 μL of 40 mM inhibitor of various kinds (arsenite, nitrate, sulfate, or NaCl), 294 μL of H2O, and 1 μL of 0.5 mg/mL protein-containing solution (a PtxD4506-containing solution, a PtxDPst-containing solution, or a liquid which contained no protein (negative control)).
(§5) The reaction solution was reacted for 60 minutes. Note that the reaction solution containing the PtxD4506-containing solution was reacted at 45° C., and the reaction solution containing the PtxDPst-containing solution was reacted at 30° C. Subsequently, OD340 was measured. A relative value of OD340 of each sample was calculated relative to 100 of a value of OD340 of the reaction solution containing the liquid which contained no protein (negative control). Note that each experiment was conducted 4 times or more, and an average of relative values obtained in the 4 or 5 experiments was also calculated.

[2] = target: T2, Ralstonia sp. strain 4506 phosphite dehydrogenase, SEQ ID NO: 1, C-terminal His tag fusion (PtxD4506) (Ralstonia sp. 4506, UniProt G4XDR8); assay: as above; format: biochemical; conditions: 45° C., 60 minutes; for relative value of OD340 (activity in the presence of inhibitor, control = 100): 50 μL of 40 mM inhibitor in the reaction solution (500 μL in total); for activity in the presence of inhibitor (in words): 50 μL of 40 mM inhibitor in the reaction solution
T2 sequence (G4XDR8 1-336): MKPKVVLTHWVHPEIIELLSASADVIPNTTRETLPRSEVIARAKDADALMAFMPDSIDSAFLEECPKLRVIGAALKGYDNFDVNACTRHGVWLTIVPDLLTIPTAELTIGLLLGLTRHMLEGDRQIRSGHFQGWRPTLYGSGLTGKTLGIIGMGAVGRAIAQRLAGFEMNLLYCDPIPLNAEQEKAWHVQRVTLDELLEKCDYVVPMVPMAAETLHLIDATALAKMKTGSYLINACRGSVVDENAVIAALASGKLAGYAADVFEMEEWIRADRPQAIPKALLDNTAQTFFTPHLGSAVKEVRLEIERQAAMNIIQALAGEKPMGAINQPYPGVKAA
Source text: as §1, §2, §3, §4, §5

[3] = target: T1, Pseudomonas stutzeri WM88 phosphite dehydrogenase, wild type, SEQ ID NO: 3, C-terminal His tag fusion (PtxDPst); assay: Reaction kinetic analysis: NADH production rate at varied NAD+ concentration; format: biochemical; conditions: NAD+ 0.5 μM to 200 μM, 28° C., individual experiments 1-3
Source text: as §1
The supernatant was supplied to a HisTrap column (produced by GE Healthcare) and, in accordance with protocols attached to the HisTrap column, a fusion protein in which a His tag was connected to the C-terminal of the phosphite dehydrogenase protein of SEQ ID NO: 1 was purified. […]
Reaction rates of respective PtxD4506 and PtxDPst were calculated on the basis of (Reaction formula 1) shown in the section [Background Art].
Specifically, in the reaction system of (Reaction formula 1), a production rate of NADH was measured with use of 7.5 μg of each of the fusion proteins PtxD4506 and PtxDPst while a concentration of a substrate (NAD^+) was gradually changed from 0.5 μM to 200 μM. […]

[4] = target: T2, Ralstonia sp. strain 4506 phosphite dehydrogenase, SEQ ID NO: 1, C-terminal His tag fusion (PtxD4506); assay: as above
[5] = pH 7.25, average of 4 or 5 experiments
[6] = pH 7.25, individual experiments 1-5
[7] = NAD+ 0.5 μM to 200 μM, 40° C., individual experiments 1-3

For O[As](O)O [Arsenite], the “relative value of OD340 (activity in the presence of inhibitor, control = 100)” value [1, 5] was 86.6, the “relative value of OD340 (activity in the presence of inhibitor, control = 100)” value [1, 6] was 82.3 and 90.4 and 88.6 and 91.4 and 90.7 and the “activity in the presence of inhibitor (in words)” value [1] was “inhibited”. For the same molecule, the “relative value of OD340 (activity in the presence of inhibitor, control = 100)” value [2, 5] was 101.6, the “relative value of OD340 (activity in the presence of inhibitor, control = 100)” value [2, 6] was 102.6 and 102.2 and 101.7 and 101.3 and 100.2 and the “activity in the presence of inhibitor (in words)” value [2] was “maintained in a high level”.
In the case of N.N.O=S(O)O [Sulfite], the “relative value of OD340 (activity in the presence of inhibitor, control = 100)” value [1, 5] is reported as 14.0, the “relative value of OD340 (activity in the presence of inhibitor, control = 100)” value [1, 6] is reported as 15.4 and 15.3 and 16.2 and 9.2 and the “relative value of OD340 (activity in the presence of inhibitor, control = 100)” value [2, 5] is reported as 52.5. The “relative value of OD340 (activity in the presence of inhibitor, control = 100)” value [2, 6] was 53.2 and 58.8 and 57.0 and 40.9.
NC(=O)c1ccc[n+]([C@@H]2O[C@H](COP(=O)([O-])OP(=O)(O)OC[C@H]3O[C@@H](n4cnc5c(N)ncnc54)[C@H](O)[C@@H]3O)[C@@H](O)[C@H]2O)c1 [NAD+] was tested, and the Kcat [3] was 3.235 s⁻¹ and 2.732 s⁻¹ and 2.513 s⁻¹, the Vmax [3] was 4.9 µmol/min/mg and 4.1 µmol/min/mg and 3.8 µmol/min/mg and the Kcat [4, 7] was 4.262 s⁻¹ and 4.068 s⁻¹ and 3.54 s⁻¹. For the same molecule, the Vmax [4, 7] was 6.4 µmol/min/mg and 6.1 µmol/min/mg and 5.3 µmol/min/mg and the “Vmax of PtxD4506 relative to that of PtxDPst” value ([4]; NAD+, PtxD4506 at 40° C., PtxDPst at 28° C.) was “about 1.4 times”.
O=S(=O)(O)O [sulfate] was tested, and the “activity in the presence of inhibitor (in words)” value [1] was “inhibited” and the “activity in the presence of inhibitor (in words)” value [2] was “maintained in a high level”.
With O=[N+]([O-])O [Nitrate] the “relative value of OD340 (activity in the presence of inhibitor, control = 100)” value [1, 5] was 18.3, the “relative value of OD340 (activity in the presence of inhibitor, control = 100)” value [1, 6] was 15.3 and 21.8 and 20.3 and 20.1 and 14.0 and the “activity in the presence of inhibitor (in words)” value [1] was “inhibited”. The “relative value of OD340 (activity in the presence of inhibitor, control = 100)” value [2, 5] was 35.7, the “relative value of OD340 (activity in the presence of inhibitor, control = 100)” value [2, 6] was 29.2 and 39.6 and 40.2 and 40.3 and 29.3 and the “activity in the presence of inhibitor (in words)” value [2] was “maintained in a high level”.
